{"source": "patent US20260159525A1", "about": "“TRICYCLIC HETEROCYCLES” (Merck Patent GmbH, priority 2021, published 2026)", "data": [{"system": "YAP-TEAD interaction", "experiment": "SK-HEP-1 reporter assay (8x TEAD responsive elements driving NanoLuc luciferase)", "format": "cell-based", "details": "Homo sapiens, SK-HEP1, SK-HEP-1 cells, 24 hour incubation, group symbols", "experimental": "(§1) To identify inhibitors of YAP-TEAD interaction, 8× TEAD responsive elements driving the NanoLuc® luciferase gene were stably integrated into SK-HEP-1 cells (ECACC #: 91091816).\n(§2) For the assay, cells were treated in duplicates with the test compounds in a 10-point dose, with the top concentration starting at 30 μM (final concentration in assay). After a 24 hour incubation at 37° C., 95% rH, and 5% CO2, a luciferase substrate/lysis reagent mix (NanoGlo™, Promega) was added to the cells, allowing the quantification of cellular luciferase activity.\n(§3) Cell Media: The cells were cultured in the following media: MEM, +10% FBS, +1× GlutaMAX, +1 mM Sodium-Pyruvate, +100 μM Non-essential amino acids, +0.1 mg/ml Hygromycin. The media used for the assay was: MEM (w/o Phenol Red), +10% FBS, +1× GlutaMAX, +1 mM Sodium-Pyruvate, +100 μM Non-essential amino acids, +0.5% Pen/Strep\n(§4) Reagents: The reagents used are listed below:\n(§5) Cell culture: The cells were examined using an inverted microscope to check for health and cell density. To dissociate adherent cells, the monolayer of cells was washed once with pre-warmed PBS. After removing the PBS, 3 ml pre-warmed Accutase® was added to a F75 flask, dispersed evenly and the flask was allowed to sit in incubator for ˜4-5 minutes.\n(§6) When a single cell suspension was obtained, 7 ml of prewarmed growth media was added and resuspended with the cells. The cell suspension was transferred to a sterile 15 ml conical centrifuge tube, and spun for 5 min at 300×g, RT. The supernatant was discarded and the pellet was resuspended in 10 ml of pre-warmed growth media.\n(§7) The total cell count was determined, and 20 μl of the desired cell number was added to each well of a 384 well plate using a Multidrop Combi. The plates were then incubated for 24 hours at 37° C., 95% rH, and 5% CO2.\n(§8) Compound treatment: 24 hours after seeding, the cells were treated with compounds.\n(§9) A 1:333 dilution of compounds, diluted in DMSO, was made to get a final concentration of 0.3% DMSO per well. To transfer the compounds to the assay plate, 120 nl was shot from Labcyte low dead volume plates to the cell plates containing 20 μl media/well with the ECHO 555 liquid handling system. After treatment, the cells were fed with 20 μl fresh pre-warmed assay media using a Multidrop combi.\n(§10) The assay plates were then incubated for another 24 h at 37° C., 95% rH, and 5% CO2.\n(§11) Luciferase readout: 24 h after treatment, the plates were taken out of the incubator and were allowed to equilibrate to RT. 30 μl of NanoGlo® reagent was added to the plates in the dark. Plates were shaken for 20 min on a Teleshake (˜1500 rpm) in the dark. The luminescence was then measured using an EnVision microplate reader. The IC50 values were generated using Genedata Screener®.", "units": {"IC50": "nM"}, "values": [{"smiles": "Cn1cc2c3sc(C(=O)O)cc3n(CCC(C)(C)C(F)(F)F)c2n1", "note": "[Compound 24, 10-methyl-7-(4,4,4-trifluoro-3,3-dimethylbutyl)-3-thia-7,9,10-triazatricyclo[6.3.0.0^2,6]undeca-1(11),2(6),4,8-tetraene-4-carboxylic acid]", "IC50": "100 to 10000"}, {"smiles": "CNC(=O)c1cc2c(s1)c1nc(C)sc1n2-c1ccc(OC(F)(F)F)cc1", "note": "[Compound 26, N,4-dimethyl-7-[4-(trifluoromethoxy)phenyl]-5,11-dithia-3,7-diazatricyclo[6.3.0.0^2,6]undeca-1(8),2(6),3,9-tetraene-10-carboxamide]", "IC50": "100 to 10000"}, {"smiles": "Cn1nc2c3sc(C(N)=O)cc3n(-c3ccc(C(F)(F)F)cc3)c2n1", "note": "[Compound 28, 4-methyl-7-[4-(trifluoromethyl)phenyl]-11-thia-3,4,5,7-tetraazatricyclo[6.3.0.0^2,6]undeca-1(8),2,5,9-tetraene-10-carboxamide]", "IC50": "> 10000"}, {"smiles": "CNC(=O)c1cc2c(s1)c1nn(C)nc1n2-c1ccc(OC(F)(F)F)cc1", "note": "[Compound 29, N,4-dimethyl-7-[4-(trifluoromethoxy)phenyl]-11-thia-3,4,5,7-tetraazatricyclo[6.3.0.0^2,6]undeca-1(8),2,5,9-tetraene-10-carboxamide]", "IC50": "> 10000"}, {"smiles": "Cn1nc2c3sc(C(=O)NC4CC4)cc3n(-c3ccc(OC(F)(F)F)cc3)c2n1", "note": "[Compound 30, N-cyclopropyl-4-methyl-7-[4-(trifluoromethoxy)phenyl]-11-thia-3,4,5,7-tetraazatricyclo[6.3.0.0^2,6]deca-1(8),2,5,9-tetraene-10-carboxamide]", "IC50": "100 to 10000"}, {"smiles": "Cn1nc2c3sc(C(N)=O)cc3n(-c3ccc(OC(F)(F)F)cc3)c2n1", "note": "[Compound 38, 4-methyl-7-[4-(trifluoromethoxy)phenyl]-11-thia-3,4,5,7-tetraazatricyclo[6.3.0.0^2,6]undeca-1(8),2,5,9-tetraene-10-carboxamide]", "IC50": "100 to 10000"}, {"smiles": "CNC(=O)c1cc2c(s1)c1cn(C)nc1n2C[C@H]1C[C@@H](C(F)(F)F)C1", "note": "[Compound 39, N,10-dimethyl-7-{[(1s,3s)-3-(trifluoromethyl)cyclobutyl]methyl}-3-thia-7,9,10-triazatricyclo[6.3.0.0^2,6]undeca-1(11),2(6),4,8-tetraene-4-carboxamide]", "IC50": "100 to 10000"}, {"smiles": "Cn1cc2c3cc(C(=O)O)sc3n(-c3ccc(C(F)(F)F)cn3)c2n1", "note": "[Compound 53, 4-methyl-7-[5-(trifluoromethyl)pyridin-2-yl]-9-thia-4,5,7-triazatricyclo[6.3.0.0^2,6]undeca-1(8),2,5,10-tetraene-10-carboxylic acid]", "IC50": "1 to 10"}, {"smiles": "Cn1cc2c3cc(C(=O)O)sc3n(-c3ccc(OC(F)(F)F)cc3)c2n1", "note": "[Compound 54, 4-methyl-7-[4-(trifluoromethoxy)phenyl]-9-thia-4,5,7-triazatricyclo[6.3.0.0^2,6]undeca-1(8),2,5,10-tetraene-10-carboxylic acid]", "IC50": "1 to 10"}, {"smiles": "Cn1cc2c3cc(C(=O)NCC4CNC4)sc3n(-c3ccc(C(F)(F)F)cc3)c2n1", "note": "[Compound 60, N-[(azetidin-3-yl)methyl]-4-methyl-7-[4-(trifluoromethyl)phenyl]-9-thia-4,5,7-triazatricyclo[6.3.0.0^2,6]undeca-1(8),2,5,10-tetraene-10-carboxamide]", "IC50": "100 to 10000"}, {"smiles": "Cn1cc2c3cc(C(=O)O)sc3n(-c3ccc(C(F)(F)F)nc3)c2n1", "note": "[Compound 81, 4-methyl-7-[6-(trifluoromethyl)pyridin-3-yl]-9-thia-4,5,7-triazatricyclo[6.3.0.0^2,6]undeca-1(8),2,5,10-tetraene-10-carboxylic acid]", "IC50": "10 to 100"}]}, {"system": "YAP-TEAD interaction", "experiment": "SK-HEP-1 reporter assay (8x TEAD responsive elements driving NanoLuc luciferase)", "format": "cell-based", "details": "Homo sapiens, SK-HEP1, SK-HEP-1 cells, 24 hour incubation, number, or n.d. (x) = not detectable below threshold x", "experimental": "as §1, §2, §3, §4, §5, §6, §7, §8, §9, §10, §11", "units": {"IC50": "nM"}, "values": [{"smiles": "CC(=O)NCCOCCOCCNC(=O)c1cc2c3cn(C)nc3n(-c3ccc(C(F)(F)F)cc3)c2s1", "note": "[Compound 73, N-(2-{2-[2-({4-methyl-7-[4-(trifluoromethyl)phenyl]-9-thia-4,5,7-triazatricyclo[6.3.0.0^2,6]undeca-1(8),2,5,10-tetraen-10-yl}formamido)ethoxy]ethoxy}ethyl)acetamide]", "IC50": "> 3000"}]}]}
